Measured values from patent publication US5106863A, “Substituted imidazole and pyridine derivatives” (Ortho Pharmaceutical Corporation, priority 1990, dated 1992).
Structures can show the parent of a compound that is named as a salt. Where two headings read alike, the source gives them in different places.

Columns and labels:
[1] = test system: stimulated parietal cells; test: Isolated Parietal Cell Assay: inhibition of 14C-aminopyrine accumulation in stimulated parietal cells; assay type: cell-based, rabbit; conditions: 37° C.
Protocol: Isolated Parietal Cell Assay Using the procedures described in Batzri, S. et al., Biochemica et Biophysica Acta 508, 328 (1978), and Soll, H., Am. J. Physiol. 238, […] (1980), the example compounds were tested for their ability to inhibit ^14 C-aminopyrine accumulation in stimulated parietal cells. Parietal cells were isolated from the fundic mucosa of rabbit stomachs by a four-stage collagenese digestion process. The supernatant fraction from the last two stages of this process contain the individual parietal cells. This cell suspension was centrifuged and reconstituted in a modified Hank's buffer to contain 1-2×10^6 cells/ml. […] […] […] The flasks were incubated in a shaking water bath at 37° C. and gassed with 95% O2, 5% CO2 for 20 minutes. Three aliquots were then taken from each flask, and cell pellets were collected by centrifugation. The pellets were then solubilized with Protosol (NEN) and the radioactivity determined by liquid scintillation spectrometry.

H^+ /K^+ ATPase = biological target: T1, H^+ /K^+ ATPase (Oryctolagus cuniculus, UniProt P27112); test: Isolated H^+ /K^+ ATPase Assay: inhibition of K+ stimulated response in vesicular membranes from rabbit gastric mucosa; assay type: biochemical; conditions: 10 min preincubation, 15 min at 37° C.
T1 construct: microsomes prepared from a crude homogenate of rabbit gastric mucosa using differential centrifugation; from tissue; host or cells: rabbit gastric mucosa (microsomes, vesicular membranes)
T1 sequence (P27112 2-1035 limits assumed): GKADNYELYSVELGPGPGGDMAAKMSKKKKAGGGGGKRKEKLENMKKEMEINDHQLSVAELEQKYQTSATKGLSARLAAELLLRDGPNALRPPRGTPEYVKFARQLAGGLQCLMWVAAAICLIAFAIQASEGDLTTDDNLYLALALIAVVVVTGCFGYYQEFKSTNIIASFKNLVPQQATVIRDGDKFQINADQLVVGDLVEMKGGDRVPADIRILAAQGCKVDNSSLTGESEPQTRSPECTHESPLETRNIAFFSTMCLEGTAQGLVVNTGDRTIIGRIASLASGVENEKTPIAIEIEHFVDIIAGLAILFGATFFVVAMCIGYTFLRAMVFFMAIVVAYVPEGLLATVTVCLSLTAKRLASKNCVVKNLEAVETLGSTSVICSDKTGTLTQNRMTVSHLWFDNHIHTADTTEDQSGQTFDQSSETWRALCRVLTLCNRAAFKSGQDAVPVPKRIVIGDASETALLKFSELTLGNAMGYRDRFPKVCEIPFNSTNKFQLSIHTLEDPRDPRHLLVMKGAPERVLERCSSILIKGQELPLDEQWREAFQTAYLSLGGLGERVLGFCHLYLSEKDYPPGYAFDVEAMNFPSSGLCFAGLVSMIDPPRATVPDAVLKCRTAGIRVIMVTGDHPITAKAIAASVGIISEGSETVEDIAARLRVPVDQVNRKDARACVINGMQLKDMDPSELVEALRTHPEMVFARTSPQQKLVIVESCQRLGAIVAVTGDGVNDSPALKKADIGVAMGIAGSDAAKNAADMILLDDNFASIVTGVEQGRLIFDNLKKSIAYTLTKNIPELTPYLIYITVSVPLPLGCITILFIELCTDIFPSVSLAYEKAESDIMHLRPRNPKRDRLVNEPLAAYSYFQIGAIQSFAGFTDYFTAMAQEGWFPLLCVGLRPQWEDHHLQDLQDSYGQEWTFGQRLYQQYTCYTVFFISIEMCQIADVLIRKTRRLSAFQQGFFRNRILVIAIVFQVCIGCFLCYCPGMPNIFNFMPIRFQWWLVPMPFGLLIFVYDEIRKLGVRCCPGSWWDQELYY
T1 sequence (P18597 whole entry partner): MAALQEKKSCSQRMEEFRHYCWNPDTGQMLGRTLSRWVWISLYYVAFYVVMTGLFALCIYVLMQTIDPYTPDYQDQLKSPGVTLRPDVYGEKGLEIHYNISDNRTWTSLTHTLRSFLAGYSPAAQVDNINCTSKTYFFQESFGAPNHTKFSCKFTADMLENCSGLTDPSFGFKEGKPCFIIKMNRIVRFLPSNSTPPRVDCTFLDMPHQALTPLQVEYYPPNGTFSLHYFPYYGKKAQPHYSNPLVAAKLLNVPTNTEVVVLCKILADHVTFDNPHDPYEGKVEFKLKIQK
Protocol: Isolated H^+ /K^+ ATPase Assay
Using the procedures described in Eibl, H. et al., Analytical Biochemistry 30, 51 (1969), Ganser, A. L. et al., Biochem. Biophys. Acta 307, 169 (1973), and Beil, W. et al., Br. J. Pharmac. 82, 651 (1984), the example compounds were tested for their ability to inhibit the H^+ /K^+ ATPase enzyme in the vesicular membranes from rabbit gastric mucosa. The H^+ /K^+ ATPase enzyme activity is present in microsomes prepared from a crude homogenate of rabbit gastric mucosa using differential centrifugation.
Assays were conducted in duplicate tubes in a 1 mL reaction volume consisting of 50 mM Tris buffer, 2mM MgCl2, ±10 mM KCl, 10 μl of example compound in dimethylsulfoxide and 20-30 μg of protein. The tubes were preincubated for 10 minutes in a 37° C. shaking water bath before the substrate, (Na2 ATP) was added. The mixture was then incubated for 15 minutes at 37° C. The reaction was stopped with 1 mL of 14% TCA and the tubes were centrifuged at 2000 rpm for 10 minutes.
The amount of inorganic phosphate (Pi) present in each sample was compared to a potassium phosphate standard curve.

[2] = Oryctolagus cuniculus, 20 min, DcAMP, read-out: Antisecretory Activity in Parietal Cell Assay, DcAMP (IC50)
[3] = Oryctolagus cuniculus, 20 min, HI, histamine-stimulated, read-out: Antisecretory Activity in Parietal Cell Assay, HI (IC50)

| IC50 [1, 2] [µM] | IC50 [1, 3] [µM] | IC50 (H^+ /K^+ ATPase) [µM] | IC50 ([1]; DcAMP, 20 minutes, read-out: Antisecretory Activity in Parietal Cell Assay, DcAMP (IC50)) [µM] | IC50 ([1]; HI, histamine-stimulated, 20 minutes, read-out: Antisecretory Activity in Parietal Cell Assay, HI (IC50)) [µM] | Compound |
| --- | --- | --- | --- | --- | --- |
| 2.2 | 2.2 | – | – | – | CC(C)=CCC[C@H](C)CCSc1nc2ccccc2[nH]1 [Example 7, 3S(+)-2-[(3,7-Dimethyl-6-octen-1-yl)thio]-1H-1,3-benzimidazole] |
| – | 2.4 | – | – | – | CCCCCCCCSc1nc2cc(Cl)ccc2[nH]1 [Example 14, 5-Chloro-2-octylthio-1H-1,3-benzimidazole] |
| 1.1 | 1.7 | – | – | – | CC(C)=CCC/C(C)=C\CSc1nc2ccccc2n1C/C=C(/C)CCC=C(C)C [Example 10, 1-(3,7-Dimethyl-2,6(Z)-octadienyl)-2-[(3,7-dimethyl-2,6(Z)-octadienyl)-thio]-1H-1,3-benzimidazole Monooxalate] |
| 0.51 | 0.46 | – | – | – | CC(C)=CCC/C(C)=C/CSc1nc2cc(C(F)(F)F)ccc2[nH]1 [Example 6, 5-Trifluoromethyl-2-[(3,7-dimethyl-2,6(E)-octadienyl)thio]-1H-1,3-benzimidazole] |
| 2.15 | 1.3 | – | – | – | CC(C)=CCC/C(C)=C/CSc1nc2ccccc2[nH]1 [Example 1, 2-[(3,7-Dimethyl-2,6(E)-octadienyl)-thio]-1H-1,3-benzimidazole] |
| 3.3 | 2 | 15 | – | – | CC(C)=CCC/C(C)=C/Cn1c(CO)nc2ccccc21 [Example 19, 1-[3,7-Dimethyl-2,6(E)-octadienyl]-2-hydroxymethyl-1H-1,3-benzimidazole Hydrochloride.1/4H2 O] |
| 3 | 40 | 0.86 | – | – | CSc1ccc(-c2nc3ccccc3n2C/C=C(\C)CCC=C(C)C)cc1 [Example 21, 1-(3,7-Dimethyl-2,6(E)-octadienyl)-2-(4-methylthiophenyl)-1H-1,3-benzimidazole Monooxalate.H2 O] |
| 1.1 | 1.7 | – | – | – | CC(C)=CCC[C@H](C)CCSc1nccn1C [Example 17, 3S-2-[(3,7-Dimethyl-6-octen-1-yl)thio]-1-methylimidazole] |
| 1.25 | 2 | 3 | – | – | COc1c(C)cnc(Cn2c(SCC[C@@H](C)CCC=C(C)C)nc3ccccc32)c1C [Example 9, 1-(3,5-Dimethyl-4-methoxy-2-pyridylmethyl)-2-[(3,7-dimethyl-6-octen-1-yl)thio]-1H-1,3-benzimidazole Monooxalate] |
| 33.3 | 40 | 72 | – | – | CC(C)=CCCC(C)CC[S+]([O-])c1nc2ccccc2[nH]1 (single isomer, unassigned; (+)) [Example 8, (+)-2-[(3,7-Dimethyl-6-octen-1-yl)sulfinyl]-1H-1,3-benzimidazole Monooxalate] |
| 3.5 | 2.3 | 5 | – | – | CC(C)=CCC/C(C)=C/CSc1nc2cc(Cl)ccc2[nH]1 [Example 2, 5-Chloro-2-[(3,7-dimethyl-2,6(E)-octadienyl)-thio]-1H-1,3-benzimidazole] |
| 3.1 | 2.8 | – | – | – | CC(C)=CCC/C(C)=C\CSc1nc2ccccc2[nH]1 [Example 11, 2-[(3,7-Dimethyl-2,6(Z)-octadienyl)-thio]-1H-1,3-benzimidazole.1/4Hydrate] |
| 19 | 4 | 3.2 | – | – | COc1c(C)cnc(Cn2c(SC/C=C(\C)CCC=C(C)C)nc3ccccc32)c1C [Example 5, 1-(3,5-Dimethyl-4-methoxy-2-pyridylmethyl)-2-[(3,7-dimethyl-2,6(E)-octadienyl)thio]-1H-1,3-benzimidazole Monooxalate Hemihydrate] |
| 1 | 1.9 | – | – | – | CCCCCCCCSc1nc2ccccc2[nH]1 [Example 12, 2-Octylthio-1H-1,3-benzimidazole] |
| 2.3 | 3.1 | 5.6 | – | – | CC(C)=CCC/C(C)=C/CSc1nc2cc(F)c(Cl)cc2[nH]1 [Example 3, 6-Chloro-5-fluoro-2-[(3,7-dimethyl-2,6(E)-octadienyl)thio]-1H-1,3-benzimidazole.1/4Hydrate] |
| – | 1.3 | – | – | – | CCCCCCCCSc1nc2cc(OC)ccc2[nH]1 [Example 13, 5-Methoxy-2-octylthio-1H-1,3-benzimidazole Hemioxalate Monohydrate] |
| – | – | 10 | 1.6 | 0.43 | 5 (and 6)-Chloro-2-methyl-1-(3,7-dimethyl-2,6(E)-octadienyl)-1H-1,3-benzimidazoleMonohydrochloride.1/4H2 O [Example 20] |
| 0.86 | 0.8 | 28 | – | – | COc1ccc2ncn(C/C=C(\C)CCC=C(C)C)c2c1 [Example 18, 1-(3,7-Dimethyl-2,6(E)-octadienyl)-6-methoxy-1H-1,3-benzimidazole Monooxalate] |
| 2.1 | 0.7 | – | – | – | COc1ccc2[nH]c(SC/C=C(\C)CCC=C(C)C)nc2c1 [Example 4, 2-[(3,7-Dimethyl-2,6(E)-octadienyl)thio]-5-methoxy-1H-1,3-benzimidazole Monooxalate] |
| 2.9 | 2.4 | 9.6 | – | – | CC(C)=CCC/C(C)=C/CSCc1ccccn1 [Example 15, 2-[3,7-Dimethyl-2,6(E)octadienylthiomethyl]pyridine.1/10 Hydrate] |
